Data taken from patent US10189819B2, “Factor IXa inhibitors” (MERCK SHARP & DOHME CORP., priority 2014, dated 2019).
pIC50: −log10 of the molar value. Where two headings read alike, the source gives them in different places.

Target: Factor IXa (Homo sapiens (Human), UniProt P00740)
Assay: Determination of inhibitory activity against Factor IXa (cleavage of fluorescent peptide CH3SO2-D-CHG-Gly-Arg-AFC)
Format: biochemical
Description: Determination of Inhibitory Activity Against Factor IXa
Formation of a clot to stem bleeding at a site of blood vessel injury involves the coordinated activity of a group of plasma proteins that initiate and propagate fibrin formation and subsequently protect fibrin from premature degradation. Factor IX is a key component of the plasma system that forms a fibrin clot at a site of vascular injury. The activity of Factor IXa is measured by monitoring the cleavage of the fluorescent peptide, CH3SO2-D-CHG-Gly-Arg-AFC.AcOH (“CHG” is cyclohexyl-glycine and “AFC” is trifluoro aminomethyl coumarin). Factor IXa cleaves the amide bond between Arg and AFC, thereby releasing the AFC fluorophore. The free AFC can be detected with a fluorescence detector at an excitation wavelength of 405 nm and emission wavelength of 510 nm.

Factor IXa, sequence (P00740 227-461): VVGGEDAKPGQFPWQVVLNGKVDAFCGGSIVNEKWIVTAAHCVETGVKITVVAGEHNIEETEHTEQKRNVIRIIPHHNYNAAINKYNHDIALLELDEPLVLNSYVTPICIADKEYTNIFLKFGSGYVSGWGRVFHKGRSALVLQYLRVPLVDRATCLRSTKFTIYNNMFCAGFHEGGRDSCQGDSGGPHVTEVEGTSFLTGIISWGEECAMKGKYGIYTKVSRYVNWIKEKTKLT
Factor IXa, sequence (P00740 47-191 partner): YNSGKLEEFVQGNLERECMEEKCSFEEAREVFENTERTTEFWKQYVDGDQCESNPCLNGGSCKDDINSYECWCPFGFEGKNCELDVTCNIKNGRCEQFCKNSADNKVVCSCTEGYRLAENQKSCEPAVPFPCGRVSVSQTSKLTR

| pIC50 (read-out: FIXa IC50) | pIC50 (read-out: hFIXa IC50) | Structure (SMILES) |
| --- | --- | --- |
| 7.98 |  | Cc1cc2nc(C(CNC(=O)c3c(Cl)cc(-n4cc(CCO)nn4)cc3Cl)c3ccccc3)[nH]c2cc1C (single isomer, unassigned) [Example 1] |
| 7.58 |  | Cc1cc2nc([C@@H](CNC(=O)c3c(Cl)cc(-n4cnnn4)cc3Cl)c3ccccc3)[nH]c2cc1C [Example 2, (R)-2,6-dichloro-N-(2-(5,6-dimethyl-1H-benzo[d]imidazol-2-yl)-2-phenylethyl)-4-(1H-tetrazol-1-yl)benzamide] |
|  | 7.66 | Cc1cc2nc(C(CNC(=O)c3ccc(-n4cc(CCO)nn4)cc3Cl)c3ccccc3)[nH]c2cc1C (stereo not shown) [Example 3] |
|  | 7.68 | Cc1ncn(-c2cc(Cl)c(C(=O)NCC(c3ccccc3)c3nc4cc(C)c(C)cc4[nH]3)c(Cl)c2)n1 (stereo not shown) [Example 6] |
|  | 8.44 | Cc1cc2nc(C(CNC(=O)c3c(Cl)cc(-n4cnnc4)cc3Cl)c3ccccc3)[nH]c2cc1C (stereo not shown) [Example 7] |
|  | 8.16 | Cc1ncn(-c2cc(C)c(C(=O)NCC(c3ccccc3)c3nc4cc(C)c(C)cc4[nH]3)c(Cl)c2)n1 (stereo not shown) [Example 8] |
|  | 7.82 | Cc1cc2nc(C(CNC(=O)c3c(F)cc(-n4cnnc4)cc3Cl)c3ccccc3)[nH]c2cc1C (stereo not shown) [Example 10] |
|  | 8.09 | Cc1cc2nc(C(CNC(=O)c3c(C)cc(-n4cnnc4)cc3Cl)c3ccccc3)[nH]c2cc1C (stereo not shown) [Example 11] |
| 7.13 |  | Cc1cc2nc(C(CNC(=O)c3c(Cl)cc(-c4ccnc(C(=O)O)c4)cc3Cl)c3ccccc3)[nH]c2cc1C (stereo not shown) [Example 16, 4-(3,5-Dichloro-4-((2-(5,6-dimethyl-1H-benzo[d]imidazol-2-yl)-2-phenylethyl)carbamoyl)phenyl)picolinic acid] |
|  | 7.74 | Cc1cc2nc(C(CNC(=O)c3c(Cl)cc(-c4cncnc4)cc3Cl)c3ccccc3)[nH]c2cc1C (stereo not shown) [Example 17] |
|  | 6.40 | Cc1cc2nc(C(CNC(=O)c3c(Cl)cc(-c4cnn(CS(C)(=O)=O)c4)cc3Cl)c3ccccc3)[nH]c2cc1C (stereo not shown) [Example 18] |
|  | 6.46 | CCOC(=O)c1cc(-c2cc(Cl)c(C(=O)NCC(c3ccccc3)c3nc4cc(C)c(C)cc4[nH]3)c(Cl)c2)ccn1 (stereo not shown) [Example 19] |
|  | 6.56 | Cc1cc2nc(C(CNC(=O)c3c(Cl)cc(-c4cnc5c(c4)CCC(=O)N5)cc3Cl)c3ccccc3)[nH]c2cc1C (stereo not shown) [Example 20] |
|  | 6.42 | Cc1cc2nc(C(CNC(=O)c3c(Cl)cc(-c4cnc(OCCF)nc4)cc3Cl)c3ccccc3)[nH]c2cc1C (stereo not shown) [Example 21] |
|  | 7.35 | Cc1cc2nc(C(CNC(=O)c3c(Cl)cc(-c4cncc(C(C)(C)O)c4)cc3Cl)c3ccccc3)[nH]c2cc1C (stereo not shown) [Example 22] |
|  | 6.26 | COC(=O)c1ccc(-c2cc(Cl)c(C(=O)NCC(c3ccccc3)c3nc4cc(C)c(C)cc4[nH]3)c(Cl)c2)cn1 (stereo not shown) [Example 23] |
|  | 6.85 | Cc1cc2nc(C(CNC(=O)c3c(Cl)cc(-c4cnc5c(c4)CNC5=O)cc3Cl)c3ccccc3)[nH]c2cc1C (stereo not shown) [Example 24] |
|  | 6.33 | Cc1cc2nc(C(CNC(=O)c3c(Cl)cc(-c4cnc5ccccc5c4)cc3Cl)c3ccccc3)[nH]c2cc1C (stereo not shown) [Example 25] |
|  | 6.51 | Cc1cc2nc(C(CNC(=O)c3c(Cl)cc(-c4ccc(C(=O)O)nc4)cc3Cl)c3ccccc3)[nH]c2cc1C (stereo not shown) [Example 26] |
|  | 7.68 | Cc1cc2nc(C(CNC(=O)c3c(Cl)cc(-c4ccc5nncn5c4)cc3Cl)c3ccccc3)[nH]c2cc1C (stereo not shown) [Example 27] |
|  | 7.19 | Cc1cc2nc(C(CNC(=O)c3c(Cl)cc(-c4ccn5ncnc5c4)cc3Cl)c3ccccc3)[nH]c2cc1C (stereo not shown) [Example 28] |
|  | 6.18 | Cc1cc2nc(C(CNC(=O)c3c(Cl)cc(-c4cnc(C5CC5)nc4)cc3Cl)c3ccccc3)[nH]c2cc1C (stereo not shown) [Example 29] |
|  | 7.19 | Cc1cc2nc(C(CNC(=O)c3c(Cl)cc(-c4cnn(CCO)c4)cc3Cl)c3ccccc3)[nH]c2cc1C (stereo not shown) [Example 31] |
|  | 6.30 | Cc1cc2nc(C(CNC(=O)c3c(Cl)cc(-c4cn[nH]c4)cc3Cl)c3ccccc3)[nH]c2cc1C (stereo not shown) [Example 32] |
|  | 7.99 | Cc1cc2nc(C(CNC(=O)c3c(Cl)cc(-c4cncc(CO)c4)cc3Cl)c3ccccc3)[nH]c2cc1C (stereo not shown) [Example 34] |
|  | 7.37 | Cc1cc2nc(C(CNC(=O)c3c(Cl)cc(-c4ccc(CO)nc4)cc3Cl)c3ccccc3)[nH]c2cc1C (stereo not shown) [Example 35] |
|  | 7.28 | Cc1cc2nc(C(CNC(=O)c3c(Cl)cc(-c4ccnc(CO)c4)cc3Cl)c3ccccc3)[nH]c2cc1C (stereo not shown) [Example 36] |

Continued, compound first:

| Structure (SMILES) | pIC50 (read-out: FIXa IC50) | pIC50 (read-out: hFIXa IC50) |
| --- | --- | --- |
| Cc1ncn(-c2cc(Cl)c(C(=O)NCC(c3ccc(=O)[nH]c3)c3nc4ccc(Cl)cc4[nH]3)c(Cl)c2)n1 (racemic) [Example 39, 2,6-Dichloro-N-(2-(6-chloro-1H-benzo[d]imidazol-2-yl)-2-(6-oxo-1,6-dihydropyridin-3-yl)ethyl)-4-(3-methyl-1H-1,2,4-triazol-1-yl)benzamide 2,2,2-trifluoroacetate] | 8.62 |  |
| COc1ccc(C(CNC(=O)c2c(Cl)cc(-n3cnc(C)n3)cc2Cl)c2nc3ccc(Cl)cc3[nH]2)cn1 (racemic) [Example 40, (±)-2,6-Dichloro-N-(2-(6-chloro-1H-benzo[d]imidazol-2-yl)-2-(6-methoxypyridin-3-yl)ethyl)-4-(3-methyl-1H-1,2,4-triazol-1-yl)benzamide] | 7.49 |  |
| COc1cc2nc(C(CNC(=O)c3c(Cl)cc(-n4cnc(C)n4)cc3Cl)n3cc(CO)nn3)[nH]c2cc1Cl (racemic) [Example 71, (±)-2,6-Dichloro-N-(2-(6-chloro-5-methoxy-1H-benzo[d]imidazol-2-yl)-2-(4-(hydroxymethyl)-1H-1,2,3-triazol-1-yl)ethyl)-4-(3-methyl-1H-1,2,4-triazol-1-yl)benzamide] | 7.69 |  |
| Cc1cc2nc(C(C)(CNC(=O)c3ccc(-n4cnnc4)cc3Cl)c3ccccc3)[nH]c2cc1C (single isomer, unassigned) [Example 69] | 7.26 |  |
| Cc1ncn(-c2cc(Cl)c(C(=O)NCC(c3ccccc3)c3nc4cc(C)c(C)cc4[nH]3)c(C(F)(F)F)c2)n1 (stereo not shown) [Example 4] |  | 7.20 |
| Cc1cc2nc(C(CNC(=O)c3c(Cl)cc(-n4cnnc4)cc3C(F)(F)F)c3ccccc3)[nH]c2cc1C (stereo not shown) [Example 5] |  | 7.66 |
| COc1cc(-n2cnnc2)cc(Cl)c1C(=O)NCC(c1ccccc1)c1nc2cc(C)c(C)cc2[nH]1 (stereo not shown) [Example 9] |  | 7.83 |
| Cc1cc2nc([C@@H](CNC(=O)c3ccc(-n4cnnn4)cc3Cl)c3ccccc3)[nH]c2cc1C [Example 12] |  | 7.11 |
| COc1ncn(-c2ccc(C(=O)NCC(c3cccc(F)c3)c3nc4ccc(Cl)cc4[nH]3)c(Cl)c2)n1 (stereo not shown) [Example 13] |  | 7.18 |
| Cc1cc2nc(C(CNC(=O)c3c(Cl)cc(-n4cnnc4)cc3OC(F)(F)F)c3ccccc3)[nH]c2cc1C (stereo not shown) [Example 14] |  | 7.40 |
| Cc1cc(Cl)cc2[nH]c(C(CNC(=O)c3ccc(-n4cnnc4C)cc3Cl)c3cccc(F)c3)nc12 (stereo not shown) [Example 15] |  | 8.31 |
| CCOC(=O)c1cc(-c2ccc(C(=O)NCC(c3ccccc3)c3nc4cc(C)c(C)cc4[nH]3)c(Cl)c2)ccn1 (stereo not shown) [Example 30] |  | 6.61 |
| Cc1cc2nc(C(CNC(=O)c3ccc(-c4ccnc(C(=O)O)c4)cc3Cl)c3ccccc3)[nH]c2cc1C (stereo not shown) [Example 33] |  | 6.27 |
| Cc1cc2nc([C@@H](CNC(=O)c3ccc(-n4cnnc4)cc3Cl)c3ccccc3)[nH]c2cc1C [Example 37, (R)-2-Chloro-N-(2-(5,6-dimethyl-1H-benzo[d]imidazol-2-yl)-2-phenylethyl)-4-(4H-1,2,4-triazol-4-yl)benzamide] | 7.80 |  |
| Cc1cc2nc([C@@H](CNC(=O)c3c(Cl)cc(-n4cnnc4)cc3Cl)c3cncc(F)c3)[nH]c2cc1C [Example 38, (R)-2,6-Dichloro-N-(2-(5,6-dimethyl-1H-benzo[d]imidazol-2-yl)-2-(5-fluoropyridin-3-yl)ethyl)-4-(4H-1,2,4-triazol-4-yl)benzamide] | 7.83 |  |
| Cc1ncn(-c2cc(Cl)c(C(=O)NC[C@@H](c3ccc(C(=O)O)cc3)c3nc4c(C)cc(Cl)cc4[nH]3)c(Cl)c2)n1 [Example 41, (R)-4-(1-(6-Chloro-4-methyl-1H-benzo[d]imidazol-2-yl)-2-(2,6-dichloro-4-(3-methyl-1H-1,2,4-triazol-1-yl)benzamido)ethyl)benzoic acid] | 7.73 |  |
| CCOC(=O)c1ccc([C@H](CNC(=O)c2c(Cl)cc(-n3cnc(C)n3)cc2Cl)c2nc3c(C)cc(Cl)cc3[nH]2)cc1 [Example 42, (R)-Ethyl 4-(1-(6-chloro-4-methyl-1H-benzo[d]imidazol-2-yl)-2-(2,6-dichloro-4-(3-methyl-1H-1,2,4-triazol-1-yl)benzamido)ethyl)benzoate] | 7.41 |  |
| O=C(NC[C@@H](c1ccc(F)cc1)c1nc2ccc(Cl)cc2o1)c1c(Cl)cc(-n2cnnc2)cc1Cl [Example 43, (R)-2,6-Dichloro-N-(2-(6-chlorobenzo[d]oxazol-2-yl)-2-(4-fluorophenyl)ethyl)-4-(4H-1,2,4-triazol-4-yl)benzamide] | 7.02 |  |
| Cc1ccc2nc(C(CNC(=O)c3ccc(-n4cnnc4)cc3Cl)c3ccccc3)[nH]c2c1 (stereo not shown) [Example 44] |  | 7.27 |
| Cc1cccc2[nH]c(C(CNC(=O)c3ccc(-n4cnnc4)cc3Cl)c3ccccc3)nc12 (stereo not shown) [Example 45] |  | 6.21 |
| Cc1ncn(-c2cc(Cl)c(C(=O)NC[C@@H](c3cccc(F)c3)c3nc4ccc(Cl)cc4[nH]3)c(Cl)c2)n1 [Example 46] |  | 8.01 |
| Cc1ncn(-c2cc(Cl)c(C(=O)NCC(c3cccc(F)c3)c3nc4c(C)cc(Cl)cc4[nH]3)c(Cl)c2)n1 (stereo not shown) [Example 47] |  | 8.21 |
| COc1cc2nc(C(CNC(=O)c3c(Cl)cc(-n4cnc(C)n4)cc3Cl)c3cccc(F)c3)[nH]c2cc1Cl (stereo not shown) [Example 48] |  | 8.54 |
| COc1ccc2nc(C(CNC(=O)c3c(Cl)cc(-n4cnc(C)n4)cc3Cl)c3cccc(F)c3)[nH]c2c1 (stereo not shown) [Example 49] |  | 7.31 |
| Cc1cc2nc(C(CNC(=O)c3ccc(-n4cnnc4)cc3Cl)c3cccc(F)c3)[nH]c2cc1C (stereo not shown) [Example 50] |  | 8.24 |
